The text below walks through data of US12247045B2, “MAP4K4 inhibitors” (Imperial College Innovations Limited, priority 2018, dated 2025).

What all share (format): biochemical
One experiment has as its target T1, GCK/MAP4K2 (Homo sapiens, UniProt Q12851).
T1 sequence (Q12851 1-820): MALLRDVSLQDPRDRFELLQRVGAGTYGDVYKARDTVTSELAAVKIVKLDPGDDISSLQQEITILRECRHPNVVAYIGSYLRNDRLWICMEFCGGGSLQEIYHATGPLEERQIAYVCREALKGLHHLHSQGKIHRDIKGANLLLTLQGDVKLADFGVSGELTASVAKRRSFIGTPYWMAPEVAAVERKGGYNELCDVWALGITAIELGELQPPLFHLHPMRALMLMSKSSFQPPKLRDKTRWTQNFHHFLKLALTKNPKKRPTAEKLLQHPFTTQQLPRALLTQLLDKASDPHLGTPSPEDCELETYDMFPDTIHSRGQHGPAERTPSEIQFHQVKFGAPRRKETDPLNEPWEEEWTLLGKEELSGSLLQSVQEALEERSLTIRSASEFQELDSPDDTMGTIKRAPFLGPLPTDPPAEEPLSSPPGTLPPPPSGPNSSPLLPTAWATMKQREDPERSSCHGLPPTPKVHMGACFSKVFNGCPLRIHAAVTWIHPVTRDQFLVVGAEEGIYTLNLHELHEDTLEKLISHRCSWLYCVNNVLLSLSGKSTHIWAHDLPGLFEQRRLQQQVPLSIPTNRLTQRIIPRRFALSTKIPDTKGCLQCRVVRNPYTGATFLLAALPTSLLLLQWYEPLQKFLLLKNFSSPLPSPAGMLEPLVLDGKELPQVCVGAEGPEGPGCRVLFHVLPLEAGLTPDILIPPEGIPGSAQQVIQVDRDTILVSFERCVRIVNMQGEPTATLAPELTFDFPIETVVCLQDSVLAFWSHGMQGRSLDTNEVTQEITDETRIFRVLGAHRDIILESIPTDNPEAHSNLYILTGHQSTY
Description: Kinase selectivity panel, GCK/MAP4K2. The text has this:
(§1) The data in Table 42 also provides the fold selectivity of the two compounds in favour of MAP4K4 over the tested kinase. The fold selectivity is indicated in parenthesis.

Another experiment addresses Aurora B (Homo sapiens, UniProt Q96GD4). The experiment in a line: Kinase selectivity panel, Aurora B. Particulars: in favour of MAP4K4.
Text: as §1

Another experiment concerns the target MLK3/MAP3K11 (Homo sapiens, UniProt Q16584). Description: Kinase selectivity panel, MLK3/MAP3K11.
Text: as §1

The target in another experiment is T2, NUAK1 (Homo sapiens, UniProt O60285).
T2 sequence (O60285 1-661): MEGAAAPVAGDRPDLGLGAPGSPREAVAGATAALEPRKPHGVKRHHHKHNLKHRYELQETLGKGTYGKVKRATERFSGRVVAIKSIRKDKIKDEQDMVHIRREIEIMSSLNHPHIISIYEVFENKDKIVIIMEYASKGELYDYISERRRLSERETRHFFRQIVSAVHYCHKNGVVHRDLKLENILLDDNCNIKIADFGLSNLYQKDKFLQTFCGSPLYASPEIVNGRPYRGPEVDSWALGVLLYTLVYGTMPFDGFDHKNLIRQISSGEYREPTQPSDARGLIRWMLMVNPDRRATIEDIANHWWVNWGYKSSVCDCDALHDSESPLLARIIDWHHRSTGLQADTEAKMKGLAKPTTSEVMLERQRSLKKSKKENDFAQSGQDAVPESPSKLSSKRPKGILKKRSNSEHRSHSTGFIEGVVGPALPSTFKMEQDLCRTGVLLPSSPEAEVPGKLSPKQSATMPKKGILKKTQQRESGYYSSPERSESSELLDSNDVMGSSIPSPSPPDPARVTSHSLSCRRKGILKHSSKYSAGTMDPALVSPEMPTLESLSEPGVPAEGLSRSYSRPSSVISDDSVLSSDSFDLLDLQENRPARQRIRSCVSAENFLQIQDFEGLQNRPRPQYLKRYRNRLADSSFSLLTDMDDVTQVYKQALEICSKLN
The experiment in a line: Kinase selectivity panel, NUAK1.
Text: as §1

Another experiment addresses KHS/MAP4K5 (Homo sapiens, UniProt Q9Y4K4). Description: Kinase selectivity panel, KHS/MAP4K5.
Text: as §1

A further experiment addresses MINK1/MAP4K6 (Homo sapiens, UniProt Q8N4C8). The experiment in a line: Kinase selectivity panel, MINK1/MAP4K6. To be noted: read-out: pIC50 MINK1/MAP4K6 (converted).
Text: as §1

The next experiment deals with MLK1/MAP3K9 (Homo sapiens, UniProt P80192). The experiment in a line: Kinase selectivity panel, MLK1/MAP3K9.
Text: as §1

In experiment [1] the target is T3, human MAP4K4 kinase domain (Homo sapiens, UniProt O95819).
T3 construct: 0.5 nM human MAP4K4 kinase domain (Invitrogen); purchased Invitrogen
Description: MAP4K4 kinase activity, CisBio HTRF Transcreener ADP assay. In a few lines: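 HTRF Transcreener ADP read-out (665/620 nm ratio) of ADP formed by 0.5 nM kinase domain with 1 μM biotin-myelin basic protein substrate and ATP at Km (10 μM), 1% DMSO, 2 h reaction. IC50 values binned as A ≤100 nM, B 100 nM–1 μM, C >1 μM.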
On the technique in general: TR-FRET usually uses a lanthanide donor and a delayed reading to cut background.

For the next experiment, the target named is T4, GLK/MAP4K3 (Homo sapiens, UniProt Q8IVH8).
T4 sequence (Q8IVH8 1-894): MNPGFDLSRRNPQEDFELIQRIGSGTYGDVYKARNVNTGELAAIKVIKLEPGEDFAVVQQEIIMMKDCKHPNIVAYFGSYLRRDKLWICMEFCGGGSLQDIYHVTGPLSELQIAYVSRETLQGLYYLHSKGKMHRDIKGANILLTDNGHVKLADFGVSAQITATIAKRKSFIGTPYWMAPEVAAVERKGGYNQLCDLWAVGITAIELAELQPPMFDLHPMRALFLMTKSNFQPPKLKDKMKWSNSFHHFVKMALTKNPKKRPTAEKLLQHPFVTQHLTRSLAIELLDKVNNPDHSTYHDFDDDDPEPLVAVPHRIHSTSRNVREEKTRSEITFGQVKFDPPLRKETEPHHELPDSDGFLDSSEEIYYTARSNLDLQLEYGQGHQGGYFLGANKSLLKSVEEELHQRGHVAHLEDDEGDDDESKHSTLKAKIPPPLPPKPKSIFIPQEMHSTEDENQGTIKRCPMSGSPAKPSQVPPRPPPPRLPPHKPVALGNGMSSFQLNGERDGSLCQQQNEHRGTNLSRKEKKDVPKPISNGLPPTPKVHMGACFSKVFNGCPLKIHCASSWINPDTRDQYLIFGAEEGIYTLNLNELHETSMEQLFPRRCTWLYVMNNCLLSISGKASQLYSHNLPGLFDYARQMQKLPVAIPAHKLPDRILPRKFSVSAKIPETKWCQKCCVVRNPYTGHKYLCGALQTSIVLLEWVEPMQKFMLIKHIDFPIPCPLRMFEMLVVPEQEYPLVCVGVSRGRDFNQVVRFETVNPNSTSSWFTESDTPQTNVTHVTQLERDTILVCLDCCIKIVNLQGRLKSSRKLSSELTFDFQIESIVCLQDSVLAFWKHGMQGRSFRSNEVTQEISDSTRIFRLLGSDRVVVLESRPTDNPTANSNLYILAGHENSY
Description: Kinase selectivity panel, GLK/MAP4K3. Particulars: in favour of MAP4K4.
Text: as §1

A further experiment deals with TNIK/MAP4K7 (Homo sapiens, UniProt Q9UKE5). Description: Kinase selectivity panel, TNIK/MAP4K7. To be noted: read-out: pIC50 TNIK/MAP4K7 (converted).
Text: as §1

Like-named read-outs stand apart in the source and are kept apart here. A value given as a limit tells only on which side of the number the result lay.

Sequence of MLK3/MAP3K11 (Q16584 whole entry): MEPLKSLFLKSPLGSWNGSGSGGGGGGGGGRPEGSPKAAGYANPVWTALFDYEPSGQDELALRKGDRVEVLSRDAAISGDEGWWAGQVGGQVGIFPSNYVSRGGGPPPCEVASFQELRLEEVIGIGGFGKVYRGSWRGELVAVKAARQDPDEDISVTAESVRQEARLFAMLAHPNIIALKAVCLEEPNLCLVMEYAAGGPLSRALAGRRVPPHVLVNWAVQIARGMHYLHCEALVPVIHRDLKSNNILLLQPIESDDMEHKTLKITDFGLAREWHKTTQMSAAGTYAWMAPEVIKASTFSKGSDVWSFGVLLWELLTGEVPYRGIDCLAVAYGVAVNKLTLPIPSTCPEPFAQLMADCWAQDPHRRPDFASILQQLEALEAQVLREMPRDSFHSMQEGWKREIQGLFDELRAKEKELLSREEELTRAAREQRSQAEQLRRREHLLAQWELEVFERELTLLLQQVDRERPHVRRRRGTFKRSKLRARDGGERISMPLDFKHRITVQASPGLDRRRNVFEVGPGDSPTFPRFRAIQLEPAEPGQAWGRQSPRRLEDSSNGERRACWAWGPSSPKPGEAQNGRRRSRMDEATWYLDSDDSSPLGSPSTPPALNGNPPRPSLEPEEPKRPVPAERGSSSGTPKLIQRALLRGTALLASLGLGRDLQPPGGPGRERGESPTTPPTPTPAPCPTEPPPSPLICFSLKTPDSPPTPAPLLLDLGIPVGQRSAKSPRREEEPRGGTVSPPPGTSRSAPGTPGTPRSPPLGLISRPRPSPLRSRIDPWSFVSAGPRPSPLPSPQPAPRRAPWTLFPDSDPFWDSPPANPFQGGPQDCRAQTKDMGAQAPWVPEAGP
T3 sequence (O95819 25-289 limits assumed): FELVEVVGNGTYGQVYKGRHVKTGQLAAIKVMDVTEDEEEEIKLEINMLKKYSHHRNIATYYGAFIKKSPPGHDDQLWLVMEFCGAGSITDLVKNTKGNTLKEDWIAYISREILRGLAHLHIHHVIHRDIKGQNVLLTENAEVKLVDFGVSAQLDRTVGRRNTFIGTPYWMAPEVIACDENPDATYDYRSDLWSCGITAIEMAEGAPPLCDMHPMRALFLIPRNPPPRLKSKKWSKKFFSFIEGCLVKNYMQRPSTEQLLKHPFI
Sequence of KHS/MAP4K5 (Q9Y4K4 whole entry): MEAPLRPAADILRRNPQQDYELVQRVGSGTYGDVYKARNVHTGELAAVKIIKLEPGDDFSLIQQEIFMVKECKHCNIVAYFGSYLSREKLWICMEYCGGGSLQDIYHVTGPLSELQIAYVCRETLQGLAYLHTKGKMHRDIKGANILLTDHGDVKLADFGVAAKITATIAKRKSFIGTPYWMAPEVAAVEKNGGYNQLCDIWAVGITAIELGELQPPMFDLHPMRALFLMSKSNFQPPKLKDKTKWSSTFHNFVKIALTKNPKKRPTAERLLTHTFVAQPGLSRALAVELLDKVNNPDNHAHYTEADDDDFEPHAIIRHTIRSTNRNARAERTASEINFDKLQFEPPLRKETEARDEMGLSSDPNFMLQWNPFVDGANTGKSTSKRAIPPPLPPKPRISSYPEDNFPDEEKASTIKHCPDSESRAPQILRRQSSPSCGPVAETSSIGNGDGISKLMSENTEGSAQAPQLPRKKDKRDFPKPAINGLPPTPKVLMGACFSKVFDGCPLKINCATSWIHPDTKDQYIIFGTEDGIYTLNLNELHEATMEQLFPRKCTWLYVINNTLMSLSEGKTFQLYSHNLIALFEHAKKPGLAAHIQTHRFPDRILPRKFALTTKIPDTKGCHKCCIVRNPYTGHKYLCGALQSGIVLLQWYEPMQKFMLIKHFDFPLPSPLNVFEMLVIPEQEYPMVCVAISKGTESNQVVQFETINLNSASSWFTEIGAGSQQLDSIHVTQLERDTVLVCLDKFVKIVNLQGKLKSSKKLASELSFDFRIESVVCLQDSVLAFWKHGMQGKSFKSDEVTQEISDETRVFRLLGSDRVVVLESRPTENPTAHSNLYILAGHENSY
Sequence of MLK1/MAP3K9 (P80192 whole entry): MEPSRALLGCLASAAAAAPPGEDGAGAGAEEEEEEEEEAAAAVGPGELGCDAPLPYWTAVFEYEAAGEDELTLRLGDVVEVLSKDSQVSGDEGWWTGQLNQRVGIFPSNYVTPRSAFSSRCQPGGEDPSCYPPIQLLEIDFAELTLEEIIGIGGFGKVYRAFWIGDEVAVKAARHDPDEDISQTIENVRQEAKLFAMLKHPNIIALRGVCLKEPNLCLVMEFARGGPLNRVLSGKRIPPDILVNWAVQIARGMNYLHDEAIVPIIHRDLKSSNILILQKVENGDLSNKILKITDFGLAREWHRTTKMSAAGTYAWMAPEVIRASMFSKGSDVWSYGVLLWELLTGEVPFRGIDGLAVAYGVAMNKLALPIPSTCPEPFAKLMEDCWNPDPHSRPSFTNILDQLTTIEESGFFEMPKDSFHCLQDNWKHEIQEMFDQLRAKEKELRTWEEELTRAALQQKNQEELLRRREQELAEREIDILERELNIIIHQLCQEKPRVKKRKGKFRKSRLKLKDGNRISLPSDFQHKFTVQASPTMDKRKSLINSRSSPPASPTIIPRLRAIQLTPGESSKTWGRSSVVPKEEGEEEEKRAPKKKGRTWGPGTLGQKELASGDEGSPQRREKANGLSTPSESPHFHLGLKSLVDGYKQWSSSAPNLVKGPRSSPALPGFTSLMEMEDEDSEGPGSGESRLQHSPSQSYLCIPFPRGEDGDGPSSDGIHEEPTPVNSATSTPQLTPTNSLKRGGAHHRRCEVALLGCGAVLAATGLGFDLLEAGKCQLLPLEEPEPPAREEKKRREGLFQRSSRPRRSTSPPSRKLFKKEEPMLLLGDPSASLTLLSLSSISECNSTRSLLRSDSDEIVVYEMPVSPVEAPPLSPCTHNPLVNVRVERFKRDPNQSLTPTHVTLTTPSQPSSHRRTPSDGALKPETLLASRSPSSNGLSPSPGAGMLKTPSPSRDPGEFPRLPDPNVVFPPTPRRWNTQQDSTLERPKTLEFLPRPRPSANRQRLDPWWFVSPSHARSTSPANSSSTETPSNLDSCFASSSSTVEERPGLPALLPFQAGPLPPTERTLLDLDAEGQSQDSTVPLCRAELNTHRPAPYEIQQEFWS
Sequence of MINK1/MAP4K6 (Q8N4C8 whole entry): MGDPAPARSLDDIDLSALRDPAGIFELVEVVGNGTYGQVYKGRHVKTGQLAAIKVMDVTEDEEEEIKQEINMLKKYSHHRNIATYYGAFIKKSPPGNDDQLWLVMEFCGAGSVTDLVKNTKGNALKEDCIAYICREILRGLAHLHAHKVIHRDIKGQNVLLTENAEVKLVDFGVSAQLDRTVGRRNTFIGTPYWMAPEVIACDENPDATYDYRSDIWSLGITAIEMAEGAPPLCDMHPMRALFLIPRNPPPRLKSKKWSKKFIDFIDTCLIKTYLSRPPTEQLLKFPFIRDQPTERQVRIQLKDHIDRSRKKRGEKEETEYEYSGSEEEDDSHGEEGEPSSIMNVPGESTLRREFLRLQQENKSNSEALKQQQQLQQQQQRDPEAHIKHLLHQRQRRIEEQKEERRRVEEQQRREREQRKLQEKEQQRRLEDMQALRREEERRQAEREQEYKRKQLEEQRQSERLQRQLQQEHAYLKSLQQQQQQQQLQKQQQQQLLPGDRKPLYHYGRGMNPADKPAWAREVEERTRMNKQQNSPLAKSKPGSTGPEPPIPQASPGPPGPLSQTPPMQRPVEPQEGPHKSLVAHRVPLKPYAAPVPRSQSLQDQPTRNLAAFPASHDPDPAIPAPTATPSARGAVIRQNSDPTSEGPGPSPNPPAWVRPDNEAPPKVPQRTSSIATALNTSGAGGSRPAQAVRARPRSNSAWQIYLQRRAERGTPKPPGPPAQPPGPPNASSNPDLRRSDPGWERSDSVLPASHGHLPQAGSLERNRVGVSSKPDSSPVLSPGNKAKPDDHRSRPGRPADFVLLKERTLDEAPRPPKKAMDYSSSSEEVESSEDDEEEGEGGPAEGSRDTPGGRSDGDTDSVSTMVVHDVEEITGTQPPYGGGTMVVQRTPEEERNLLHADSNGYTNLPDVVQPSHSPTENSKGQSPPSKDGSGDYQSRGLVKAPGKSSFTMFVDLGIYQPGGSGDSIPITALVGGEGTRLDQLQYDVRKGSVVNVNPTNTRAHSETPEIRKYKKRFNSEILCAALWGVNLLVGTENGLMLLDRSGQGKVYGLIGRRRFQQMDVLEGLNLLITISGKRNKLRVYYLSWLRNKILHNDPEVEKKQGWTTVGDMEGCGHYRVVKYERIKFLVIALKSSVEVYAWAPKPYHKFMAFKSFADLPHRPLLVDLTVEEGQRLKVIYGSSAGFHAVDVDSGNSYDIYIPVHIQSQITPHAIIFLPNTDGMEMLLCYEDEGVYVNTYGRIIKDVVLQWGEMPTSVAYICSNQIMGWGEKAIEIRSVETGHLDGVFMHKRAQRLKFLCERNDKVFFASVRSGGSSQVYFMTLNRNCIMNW
Sequence of Aurora B (Q96GD4 whole entry): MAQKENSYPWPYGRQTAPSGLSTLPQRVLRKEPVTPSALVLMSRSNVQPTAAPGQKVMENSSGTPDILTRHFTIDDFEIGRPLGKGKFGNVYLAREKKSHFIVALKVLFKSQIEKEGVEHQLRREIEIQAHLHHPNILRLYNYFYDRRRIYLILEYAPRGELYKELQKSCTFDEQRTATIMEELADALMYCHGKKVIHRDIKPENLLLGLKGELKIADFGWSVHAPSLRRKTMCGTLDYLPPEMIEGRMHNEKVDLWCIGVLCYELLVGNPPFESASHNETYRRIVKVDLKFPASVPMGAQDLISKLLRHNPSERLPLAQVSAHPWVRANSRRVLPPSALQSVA

Turning to `COCCOc1ccc(-c2cn(-c3cccc(F)c3)c3nc[nH]c(=O)c23)cn1` [Ex-29], the “fold selectivity MAP4K4 over GCK/MAP4K2” value on GCK/MAP4K2 (in favour of MAP4K4) is reported as “(50) fold”. For the same compound, the IC50 is 1000 nM at GCK/MAP4K2 (read-out: pIC50 GCK/MAP4K2 (converted)); 501 nM on MLK3/MAP3K11 (read-out: pIC50 MLK3/MAP3K11 (converted)); 316 nM on NUAK1 (read-out: pIC50 NUAK1 (converted)); 1000 nM at KHS/MAP4K5 (read-out: pIC50 KHS/MAP4K5 (converted)); 12.6 nM at MINK1/MAP4K6; 398 nM at MLK1/MAP3K9 (read-out: pIC50 MLK1/MAP3K9 (converted)). Further, the IC50 is at most 100 nM in experiment [1] (IC50 category, ATP at Km (10 μM), 0.5 nM kinase domain, 2 h, read-out: MAP4K4); 20 nM in experiment [1] (read-out: pIC50 MAP4K4 (converted)); 31.6 nM on TNIK/MAP4K7. Also, the “fold selectivity MAP4K4 over Aurora B” value at Aurora B is recorded as “(>1000) fold”. The “fold selectivity MAP4K4 over MLK3/MAP3K11” value on MLK3/MAP3K11 (in favour of MAP4K4) is given as “(25) fold”. Further, the “fold selectivity MAP4K4 over NUAK1” value at NUAK1 (in favour of MAP4K4) is listed as “(16) fold”. Further, the “fold selectivity MAP4K4 over KHS/MAP4K5” value at KHS/MAP4K5 (in favour of MAP4K4) is listed as “(50) fold”. In addition, the “fold selectivity MAP4K4 over MLK1/MAP3K9” value on MLK1/MAP3K9 (in favour of MAP4K4) is listed as “(20) fold”. Moreover, the “fold selectivity MAP4K4 over GLK/MAP4K3” value at GLK/MAP4K3 is reported as “(>1000) fold”.
